Laboratory results reported in patent publication US20220370453A1 (Storm Therapeutics Ltd, priority 2019, published 2022).

What was measured:
BCDIN3D [1] = target: T1, BCDIN3D (Homo sapiens, UniProt Q7Z5W3); experiment: BCDIN3D IC50 RFMS (RapidFire) assay with mini-helix; assay type: biochemical; settings: 25 nM enzyme
T1 sequence (Q7Z5W3 1-292): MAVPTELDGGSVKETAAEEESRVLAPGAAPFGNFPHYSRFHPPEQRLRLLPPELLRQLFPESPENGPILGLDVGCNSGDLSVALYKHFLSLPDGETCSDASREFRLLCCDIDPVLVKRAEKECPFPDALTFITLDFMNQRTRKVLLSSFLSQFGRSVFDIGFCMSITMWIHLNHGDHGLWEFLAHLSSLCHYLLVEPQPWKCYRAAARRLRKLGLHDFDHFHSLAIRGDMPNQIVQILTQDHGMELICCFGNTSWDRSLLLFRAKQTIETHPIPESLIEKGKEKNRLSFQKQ
Procedure, shortened: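 SAH formation was measured by RapidFire mass spectrometry with D4- and 13C10-SAH internal standards after TCA quench. Substrates 6 μM SAM and 0.2 μM mini-helix reacted 1 h at 37 °C with 25 nM enzyme, which had been preincubated 10 min with compound (1% DMSO) in Tris pH 8.0 buffer with DTT, EDTA, BSA.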

BCDIN3D [2] = target: T1, BCDIN3D; experiment: BCDIN3D InCellPulse thermal stability assay in transfected A549 cells; assay type: cell-based; settings: heat shock 58° C. 15 min
Procedure, shortened: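 Thermal stabilisation read-out: after a 15 min 58 °C heat shock, ePL-tagged BCDIN3D in transiently transfected A549 cells (1500/well) was quantified by enzyme-fragment complementation luminescence. Compounds were pre-incubated with cells 1 h at 37 °C, 0.6% DMSO final.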

[3] = mini-helix 0.2 μM and SAM 6 μM as substrates, 1 hr at 37° C.
[4] = A549 cells transiently transfected with ePL-BCDIN3D, 1 h pre-incubation
[5] = mini-helix substrate 0.2 μM, SAM 6 μM
[6] = transiently transfected A549 cells

Row | IC50 (BCDIN3D [1]; [3]) [nM] | IC50 (BCDIN3D [2]; [4]) [nM] | IC50 (BCDIN3D [1]; [5]) [nM] | IC50 (BCDIN3D [2]; [6]) [nM] | SMILES
1 | 330 | 410 |  |  | Cn1ncc2c(NC(C)(C)C)nc(NC[C@H](N)c3ccc(F)cc3)nc21 [Compound 7.18, N6-[(2R)-2-amino-2-(4-fluorophenyl)ethyl]-N4-tert-butyl-1-methyl-1H-pyrazolo[3,4-d]pyrimidine-4,6-diamine]
2 |  |  | 6010 | 11200 | CC(C)Cc1nc(NCC(N)c2ccccc2)nc2c1cnn2C (stereo not drawn) [Compound 4.130, N2-[1-methyl-4-(2-methylpropyl)-1H-pyrazolo[3,4-d]pyrimidin-6-yl]-1-phenylethane-1,2-diamine]
3 |  |  | 446 | 1630 | Cn1ncc2c(Nc3ccc(Cl)cc3F)nc(NCC3(N)CC3)nc21 [Compound 2.15, 6-N-[(1-aminocyclopropyl)methyl]-4-N-(4-chloro-2-fluorophenyl)-1-methylpyrazolo[3,4-d]pyrimidine-4,6-diamine]
4 |  |  | 116 | 525 | Cn1ncc2c(Nc3ccc(OC(F)F)nc3)nc(NCC(C)(N)c3ccccc3)nc21 (stereo not drawn) [Compound 4.29, N6-(2-amino-2-phenyl-propyl)-N4-[6-(difluoromethoxy)-3-pyridyl]-1-methyl-pyrazolo[3,4-d]pyrimidine-4,6-diamine]
5 |  |  | 62 | 148 | Cn1ncc2c(NC3CCCC3)nc(NC[C@H](N)c3ccccc3)nc21 [Compound 4.113, N6-[(2R)-2-amino-2-phenyl-ethyl]-N4-cyclopentyl-1-methyl-pyrazolo[3,4-d]pyrimidine-4,6-diamine]
6 |  |  | 1140 | 1410 | Cc1ccc(CNc2nc(NC3CCCCC3N)nc3c2cnn3C)cc1Cl (stereo not drawn) [Compound 3.30, N6-(2-aminocyclohexyl)-N4-[(3-chloro-4-methylphenyl)methyl]-1-methyl-1H-pyrazolo[3,4-d]pyrimidine-4,6-diamine]
7 | 209 | 414 |  |  | Cn1ncc2c(Nc3ccc(C(F)(F)F)nc3)nc(NC[C@@H](N)c3ccccc3)nc21 [Compound 7.09, N6-[(2S)-2-amino-2-phenyl-ethyl]-1-methyl-N4-[6-(trifluoromethyl)-3-pyridyl]pyrazolo[3,4-d]pyrimidine-4,6-diamine]
8 |  |  | 109 | 275 | Cn1ncc2c(NCc3ccc(F)c(Cl)c3)nc(NCC(N)c3ccccc3)nc21 (stereo not drawn) [Compound 4.05, 6-N-(2-amino-2-phenylethyl)-4-N-[(3-chloro-4-fluorophenyl)methyl]-1-methylpyrazolo[3,4-d]pyrimidine-4,6-diamine]
9 |  |  | 36.1 | 86.4 | Cn1ncc2c(Nc3ccc(C(F)(F)F)cc3)nc(NCC(C)(N)c3ccccc3)nc21 (stereo not drawn) [Compound 4.19, N6-(2-amino-2-phenyl-propyl)-1-methyl-N4-[4-(trifluoromethyl)phenyl]pyrazolo[3,4-d]pyrimidine-4,6-diamine]
10 | 744 | 1870 |  |  | COc1ccc(CNc2nc(NCC(C)(C)N)nc3c2cnn3C)cc1Cl [Compound 1.26, N6-(2-amino-2-methylpropyl)-N4-[(3-chloro-4-methoxyphenyl)methyl]-1-methyl-1H-pyrazolo[3,4-d]pyrimidine-4,6-diamine]
11 |  |  | 694 | 3640 | CNc1nc(NCC(N)c2cccc(C#N)c2)nc2c1cnn2C (stereo not drawn) [Compound 5.04, 3-[1-Amino-2-[[1-methyl-4-(methylamino)pyrazolo[3,4-d]pyrimidin-6-yl]amino]ethyl]benzonitrile]
12 |  |  | 118 | 162 | Cn1ncc2c(Nc3ccc(F)c(F)c3)nc(NC[C@H](N)c3ccccc3)nc21 [Compound 4.34, N6-[(2R)-2-amino-2-phenyl-ethyl]-N4-(3,4-difluorophenyl)-1-methyl-pyrazolo[3,4-d]pyrimidine-4,6-diamine]
13 |  |  | 75.5 | 94.4 | Cn1ncc2c(NC3CCC3)nc(NC[C@H](N)c3ccccc3)nc21 [Compound 4.83, N6-[(2R)-2-amino-2-phenyl-ethyl]-N4-cyclobutyl-1-methyl-pyrazolo[3,4-d]pyrimidine-4,6-diamine]
14 | 744 | 1700 |  |  | Cn1ncc2c(Nc3cccc(-c4ccccc4)c3)nc(NCCN)nc21 [Compound 1.16, N6-(2-aminoethyl)-N4-{[1,1′-biphenyl]-3-yl}-1-methyl-1H-pyrazolo[3,4-d]pyrimidine-4,6-diamine]
15 |  |  | 1080 | 2950 | Cn1ncc2c(NCc3ccc(C(F)(F)F)nc3)nc(NCC(N)c3ccccc3)nc21 (stereo not drawn) [Compound 4.08, 6-N-(2-amino-2-phenylethyl)-1-methyl-4-N-[[6-(trifluoromethyl)pyridin-3-yl]methyl]pyrazolo[3,4-d]pyrimidine-4,6-diamine]
16 |  |  | 137 | 125 | Cn1ncc2c(NC3(C)CCC3)nc(NC[C@H](N)c3ccccc3)nc21 [Compound 4.84, N6-[(2R)-2-amino-2-phenyl-ethyl]-1-methyl-N4-(1-methylcyclobutyl)pyrazolo[3,4-d]pyrimidine-4,6-diamine]
17 |  |  | 253 | 667 | CC(C)Nc1nc(NC[C@H](N)c2ccccc2)nc2c1cnn2C [Compound 4.47, 6-N-[(2R)-2-amino-2-phenylethyl]-1-methyl-4-N-propan-2-ylpyrazolo[3,4-d]pyrimidine-4,6-diamine]
18 |  |  | 109 | 77.5 | Cn1ncc2c(NC(C)(C)C3CC3)nc(NC[C@H](N)c3ccccc3)nc21 [Compound 4.59, N6-[(2R)-2-amino-2-phenyl-ethyl]-N4-(1-cyclopropyl-1-methyl-ethyl)-1-methyl-pyrazolo[3,4-d]pyrimidine-4,6-diamine]
19 | 2620 | 6000 |  |  | Cn1ncc2c(Nc3ccc(C(F)(F)F)nc3)nc(NC[C@](C)(N)c3ccccc3)nc21 (single isomer, unassigned) [Compound 7.13]
20 |  |  | 6450 | 4810 | CC(C)(C)Nc1nc(NC[C@H](N)c2ccccc2)nc2c1cnn2C1CC1 [Compound 4.121, N6-[(2R)-2-amino-2-phenyl-ethyl]-N4-tert-butyl-1-cyclopropyl-pyrazolo[3,4-d]pyrimidine-4,6-diamine]
21 |  |  | 588 | 1490 | Cn1ncc2c(NCc3cccc(Br)c3)nc(NCC3(N)CC3)nc21 [Compound 2.12, 6-N-[(1-aminocyclopropyl)methyl]-4-N-[(3-bromophenyl)methyl]-1-methylpyrazolo[3,4-d]pyrimidine-4,6-diamine]
22 |  |  | 50.7 | 319 | Cn1ncc2c(Nc3ccc(C(F)(F)F)nc3)nc(NCC(N)c3ccccc3)nc21 (stereo not drawn) [Compound 4.25, 6-N-(2-amino-2-phenylethyl)-1-methyl-4-N-[6-(trifluoromethyl)pyridin-3-yl]pyrazolo[3,4-d]pyrimidine-4,6-diamine]
23 |  |  | 168 | 2160 | Cn1ncc2c(Nc3cnc(C(F)(F)F)nc3)nc(NCC(C)(N)c3ccccc3)nc21 (stereo not drawn) [Compound 4.11, N6-(2-amino-2-phenyl-propyl)-1-methyl-N4-[2-(trifluoromethyl)pyrimidin-5-yl]pyrazolo[3,4-d]pyrimidine-4,6-diamine]
24 |  |  | 615 | 1170 | Cn1ncc2c(NC(C)(C)C)nc(NCC(N)c3cccnc3)nc21 (stereo not drawn) [Compound 5.08, N6-[2-amino-2-(3-pyridyl)ethyl]-N4-tert-butyl-1-methyl-pyrazolo[3,4-d]pyrimidine-4,6-diamine]
